According to patent US20230356105A1, “TETRAAZADODECANE BASED CHELATING AGENTS FOR SEPARATION OF RARE EARTH ELEMENTS AND METHOD THEREFOR” (Ustav Organicke Chemie a Biochemie AV CR V.V.I., priority 2020, published 2023):
Several values for one entry are separate records, joined by “and”; a condition that tells them apart may be missing. Equal values may be shown once. Read-outs that look alike come from different tables or passages of the source.

What was measured:
Format in all cases: physicochemical
[1] = Separation of Eu/Yb mixture by precipitation using L5 (Example 15); settings: for Precipitate concentration [mM] Eu / Precipitate concentration [mM] Yb: dissolved to 150 μL
Protocol: Stock solutions were pipetted into round-bottom 2 mL Eppendorf tubes as follows: • 1. 15 μL 100 mM aqueous solution of EuCl3 • 2. 10 μL 100 mM aqueous solution of YbCl3 • 3. 30 μL 100 mM aqueous solution of compound L5. • 4. 90 μL 0.5 M MOPS buffer pH=7.
Three identical reaction mixtures were prepared. Each tube was equipped with one PTFE-coated magnetic stir bar and sealed, and the mixture was stirred on a magnetic stirrer for 24 hours at room temperature. The tubes were then centrifuged and the supernatants were carefully pipetted out and transferred to a new set of tubes. To the precipitate was added 100 μL 1 M HCl (reaching pH=0) and the mixture was stirred until full dissolution (overnight at room temperature, pH=0). The overall volume of the solution was adjusted to 150 μL volume by addition of water. The supernatants were treated with 1 M HCl for a total volume of 150 μL and pH=0.5. Concentrations of Eu and Yb in the supernatants and in the re-dissolved precipitates were determined by ICP-OES. The resulting absolute concentrations of both metals in the supernatants and precipitates, as well as calculated values of the separation factor Yb/Eu according to formula from Example 11), are summarized in Table 9. […] The average separation factor value was 152.

[2] = Separation of Tb/Dy mixture by repeated precipitation using L5 and α-HIBA (Example 20); settings: for Precipitate concentration [mM] Dy / precipitate concentration [mm] Tb: dissolved to 200 μL
Protocol: Analogous to Example 19, three reaction mixtures were prepared with the following changes: the rare-earth elements were Tb and Dy, and 0.5 molar equivalents (5 mM reaction concentration) of α-HIBA were used. Otherwise, the experiment was run analogously to Example 19.
The resulting absolute concentrations of both metals in the supernatants and precipitates, as well as calculated values of the separation factor Dy/Tb according to the formula from Example 11), are summarized in Table 14. […] The average separation factor was 2.32.

[3] = Separation of Nd/Pr/Tb/Dy mixture by precipitation using L5 and acetate (Example 22); settings: for solution after 20 hrs / solution after 2 days: acetate buffer pH=5.8; for solution after 20 hrs composition / solution after 2 days composition: percent molar
Protocol: A reaction mixture was prepared analogously to Example 21), with the differences being the use of sodium acetate buffer pH=5.8 in place of MOPS pH=7, an additional aliquot taken for analysis after 2 days, and the lack of ICP-OES analysis on the precipitated portions of the solution — that is, only the supernatants were analysed. Otherwise, the reaction was run analogously to Example 21). The percent molar composition of each is also provided, showing the improved selectivity in precipitation under these conditions, compared to Example 21).

[4] = Separation of Nd/Pr/Tb/Dy mixture by precipitation using L5 and α-HIBA (Example 23)
Protocol: These aqueous reaction mixtures, each prepared to a total volume of 1.5 mL with the addition of water as necessary, were mixed by the use of a PTFE-coated stir bar on a magnetic stirrer. The cuvettes were sealed with transparent tape to prevent evaporation overnight. […] The supernatants were carefully pipetted out and transferred to a new set of tubes. […] The absolute concentration of the four metals in each supernatant and precipitate was determined by ICP-OES.

[5] = L5 + α-HIBA, MOPS pH=7, 18 hours, individual samples A, B, C
[6] = L5 + α-HIBA, MOPS pH=7, 18 hours, precipitate dissolved to 500 μL, individual samples A, B, C

In the case of O=C(O)CN1CCN(CC(=O)O)CCN(Cc2cccc3ccccc23)CCN(CC(=O)O)CC1 [L5, 2,2′,2″-(10-(naphthalene-1-ylmethyl)-1,4,7,10-tetraazacyklododekane-1,4,7-triyl)triacetic acid], the “Supernatant concentration [mM] Eu” value [1] was 0.16 mM and 0.22 mM, the “Supernatant concentration [mM] Yb” value [1] was 3.69 mM and 3.85 mM and 3.97 mM and the “Precipitate concentration [mM] Eu” value [1] was 4.66 mM and 4.57 mM and 4.50 mM. For the same compound, the “Precipitate concentration [mM] Yb” value [1] was 0.63 mM and 0.62 mM and 0.58 mM, the “Precipitate concentration [mM] Eu” value ([1]; mean) was 4.58 mM and the “Precipitate concentration [mM] Yb” value ([1]; mean) was 0.61 mM. The “Supernatant concentration [mM] Eu” value ([1]; mean) was 0.19 mM, the “Supernatant concentration [mM] Yb” value ([1]; mean) was 3.84 mM and the “Supernatant concentration [mM] Dy” value ([2]; A, 1st precipitation) was 1.41 mM and 1.47 mM and 1.59 mM. For the same compound, the “Supernatant concentration [mM] Tb” value ([2]; A, 1st precipitation, 5 mM α-HIBA) was 0.77 mM and 0.86 mM, the “Supernatant concentration [mM] Tb” value ([2]; A, 1st precipitation, 5 mM α-HIBA, mean) was 0.82 mM and the “Precipitate concentration [mM] Dy” value ([2]; A, 1st precipitation) was 3.02 mM and 2.88 mM and 2.92 mM. For the same compound, the “Precipitate concentration [mM] Dy” value ([2]; A, 1st precipitation, mean) was 2.94 mM, the “precipitate concentration [mm] Tb” value ([2]; A, 1st precipitation, mean) was 3.74 mM and the “Supernatant concentration [mM] Dy” value ([2]; A, 1st precipitation, mean) was 1.49 mM. For the same compound, the “Supernatant concentration [mM] Dy” value ([2]; B, 2nd precipitation) was 1.27 mM and 1.30 mM and 1.26 mM, the “Supernatant concentration [mM] Tb” value ([2]; B, 2nd precipitation) was 0.84 mM and 0.90 mM and 0.79 mM and the “Precipitate concentration [mM] Dy” value ([2]; B, 2nd precipitation) was 2.65 mM and 2.72 mM and 2.76 mM. The “Precipitate concentration [mM] Dy” value ([2]; B, 2nd precipitation, mean) was 2.71 mM, the “precipitate concentration [mm] Tb” value ([2]; B, 2nd precipitation, mean) was 4.16 mM and the “Supernatant concentration [mM] Dy” value ([2]; C, 3rd precipitation) was 1.10 mM and 1.20 mM and 1.08 mM. The “Supernatant concentration [mM] Tb” value ([2]; C, 3rd precipitation) was 0.90 mM and 0.98 mM and 0.83 mM, the “Precipitate concentration [mM] Dy” value ([2]; C, 3rd precipitation) was 2.52 mM and 2.42 mM and 2.72 mM and the “Precipitate concentration [mM] Dy” value ([2]; C, 3rd precipitation, mean) was 2.55 mM. The “precipitate concentration [mm] Tb” value ([2]; C, 3rd precipitation, mean) was 4.70 mM, the “Supernatant concentration [mM] Dy” value ([2]; C, 3rd precipitation, mean) was 1.13 mM and the “solution after 20 hrs” value ([3]; Ln=Dy) was 5.41 mM. For the same compound, the “solution after 2 days” value ([3]; Ln=Dy) was 5.00 mM, the “solution after 20 hrs composition” value ([3]; Ln=Dy) was 16.4% and the “solution after 2 days composition” value ([3]; Ln=Dy) was 28.1%. The “solution after 20 hrs” value ([3]; Ln=Nd) was 17.01 mM, the “solution after 2 days” value ([3]; Ln=Nd) was 6.42 mM and the “solution after 20 hrs composition” value ([3]; Ln=Nd) was 51.5%. For the same compound, the “solution after 2 days composition” value ([3]; Ln=Nd) was 36.1%, the “solution after 20 hrs” value ([3]; Ln=Pr) was 4.78 mM and the “solution after 2 days” value ([3]; Ln=Pr) was 1.57 mM. The “solution after 20 hrs composition” value ([3]; Ln=Pr) was 14.5%, the “solution after 2 days composition” value ([3]; Ln=Pr) was 8.8% and the “solution after 20 hrs” value ([3]; Ln=Tb) was 5.84 mM. The “solution after 2 days” value ([3]; Ln=Tb) was 4.77 mM, the “solution after 20 hrs composition” value ([3]; Ln=Tb) was 17.7% and the “solution after 2 days composition” value ([3]; Ln=Tb) was 26.9%. The “supernatant concentration Dy” value [4, 5] was 1.73 and 1.38 and 1.65, the “supernatant concentration Nd” value [4, 5] was 1.31 and 0.78 and 0.98 and the “supernatant concentration Pr” value [4, 5] was 0.32 and 0.20 and 0.24. For the same compound, the “supernatant concentration Tb” value [4, 5] was 1.22 and 1.00 and 1.17, the “precipitate concentration Dy” value [4, 6] was 1.04 and 0.95 and 1.05 and the “precipitate concentration Nd” value [4, 6] was 8.60 and 7.83 and 8.96. The “precipitate concentration Pr” value [4, 6] was 2.30 and 2.08 and 2.40, the precipitate concentration Tb [4, 6] was 1.25 mM (2×) and 1.11 mM and the “precipitate concentration Dy, average” value ([4]; average of samples A-C) was 1.01. For the same compound, the “precipitate concentration Nd, average” value ([4]; average of samples A-C) was 8.46, the “precipitate concentration Pr, average” value ([4]; average of samples A-C) was 2.26 and the “precipitate concentration Tb, average” value ([4]; average of samples A-C) was 1.20. The “supernatant concentration Dy, average” value ([4]; average of samples A-C) was 1.59, the “supernatant concentration Nd, average” value ([4]; average of samples A-C) was 1.03 and the “supernatant concentration Pr, average” value ([4]; average of samples A-C) was 0.25. For the same compound, the “supernatant concentration Tb, average” value ([4]; average of samples A-C) was 1.13, the “% comp of precipitate, Dy” value ([4]; percent composition of phase) was 7.8% and the “% comp of precipitate, Nd” value ([4]; percent composition of phase) was 65.4%. The “% comp of precipitate, Pr” value ([4]; percent composition of phase) was 17.5%, the “% comp of precipitate, Tb” value ([4]; percent composition of phase) was 9.3% and the “% comp of supernatant, Dy” value ([4]; percent composition of phase) was 39.7%. The “% comp of supernatant, Nd” value ([4]; percent composition of phase) was 25.7%, the “% comp of supernatant, Pr” value ([4]; percent composition of phase) was 6.3% and the “% comp of supernatant, Tb” value ([4]; percent composition of phase) was 28.3%.
